The values that follow come from ChEMBL document CHEMBL1201862, “PubChem BioAssay data set” (2004).

Activity calls are given as the source filed them. Where only a bound is given, the exact number is not on record here.

A word on the AC50: it is the concentration giving half of the maximal activity seen. Broadly, the CC50 is the concentration that lowers cell viability or growth by half. One may read the EC50 as the concentration needed to bring the measured effect to its halfway point.

Assay [1] has as its target Transitional endoplasmic reticulum ATPase (Homo sapiens, UniProt P55072, C522A). In words: Luminescence counterscreen assay for p97 inhibitors: dose response biochemical high throughput screening assay to identify inhibitors of the C522A mutant p97 ATPase: synthesized compounds. [Related pubchem assays: 1481, 1517, 1551 ].
For assay [2], the target named is Transitional endoplasmic reticulum ATPase (Homo sapiens, UniProt P55072). The assay can be described thus: Luminescence dose response biochemical high throughput screening assay for inhibitors of the p97 ATPase: synthesized compounds. [Related pubchem assays: 1481, 1517 ].
In assay [3] the target is T1, Mannose-6-phosphate isomerase (Homo sapiens, UniProt P34949).
T1 sequence (P34949 whole entry): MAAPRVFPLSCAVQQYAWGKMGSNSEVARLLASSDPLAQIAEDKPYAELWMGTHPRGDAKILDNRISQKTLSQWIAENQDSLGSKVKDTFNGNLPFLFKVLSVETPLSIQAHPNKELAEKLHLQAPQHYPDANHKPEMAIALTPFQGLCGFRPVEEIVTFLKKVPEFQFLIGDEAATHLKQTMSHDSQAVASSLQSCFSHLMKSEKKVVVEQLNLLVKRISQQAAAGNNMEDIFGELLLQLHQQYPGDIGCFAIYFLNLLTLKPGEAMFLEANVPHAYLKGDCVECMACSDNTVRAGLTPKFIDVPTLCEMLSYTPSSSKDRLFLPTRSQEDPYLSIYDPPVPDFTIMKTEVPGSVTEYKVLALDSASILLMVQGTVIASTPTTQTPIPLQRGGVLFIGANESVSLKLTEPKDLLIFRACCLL
The assay can be described thus: human PMI inhibitors, high substrate, primary screen, biochemical, fluorescence intensity, high mannose 6-phosphate (AID 1220).

The target in assay [4] is T2, Rac GTPase-activating protein 1 (Homo sapiens, UniProt Q9H0H5).
T2 sequence (Q9H0H5 whole entry): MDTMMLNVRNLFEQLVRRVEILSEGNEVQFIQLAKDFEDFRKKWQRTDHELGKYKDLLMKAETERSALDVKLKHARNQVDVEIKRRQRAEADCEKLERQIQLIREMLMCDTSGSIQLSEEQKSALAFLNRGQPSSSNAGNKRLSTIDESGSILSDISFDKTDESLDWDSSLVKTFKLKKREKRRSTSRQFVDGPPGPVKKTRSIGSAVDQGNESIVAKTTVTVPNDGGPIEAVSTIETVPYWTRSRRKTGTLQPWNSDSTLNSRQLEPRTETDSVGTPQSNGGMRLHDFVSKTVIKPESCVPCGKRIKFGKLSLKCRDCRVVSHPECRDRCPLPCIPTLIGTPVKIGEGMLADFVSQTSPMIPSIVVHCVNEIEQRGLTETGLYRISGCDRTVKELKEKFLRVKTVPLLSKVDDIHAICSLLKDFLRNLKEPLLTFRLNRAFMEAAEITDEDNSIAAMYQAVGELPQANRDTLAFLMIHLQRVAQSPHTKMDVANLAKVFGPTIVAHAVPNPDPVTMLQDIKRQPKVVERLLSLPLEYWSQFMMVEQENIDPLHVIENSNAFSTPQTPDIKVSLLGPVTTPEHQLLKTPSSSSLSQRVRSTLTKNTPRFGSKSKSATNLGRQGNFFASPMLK
In words: MgcRacGAP GTPase-activating activity inhibitors, confirmation, biochemical, ADP Hunter fluorescence, primary and confirmatory (AID 624330). It counts as functional.

The next assay deals with Nonstructural protein 1 (Influenza A virus, UniProt Q194T2). Format: functional, Influenza A virus (A/California/07/2009(H1N1)).
Nonstructural protein 1, sequence (Q194T2 whole entry): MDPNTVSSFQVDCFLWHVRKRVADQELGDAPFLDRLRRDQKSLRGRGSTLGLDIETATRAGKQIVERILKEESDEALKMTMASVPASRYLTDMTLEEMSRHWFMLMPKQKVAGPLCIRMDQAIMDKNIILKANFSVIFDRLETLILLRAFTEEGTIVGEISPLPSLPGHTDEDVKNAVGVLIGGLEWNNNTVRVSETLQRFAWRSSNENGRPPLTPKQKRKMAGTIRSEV
Assay [5] has as its target T3, Histone-lysine N-methyltransferase NSD2 (Homo sapiens, UniProt O96028).
T3 sequence (O96028 whole entry): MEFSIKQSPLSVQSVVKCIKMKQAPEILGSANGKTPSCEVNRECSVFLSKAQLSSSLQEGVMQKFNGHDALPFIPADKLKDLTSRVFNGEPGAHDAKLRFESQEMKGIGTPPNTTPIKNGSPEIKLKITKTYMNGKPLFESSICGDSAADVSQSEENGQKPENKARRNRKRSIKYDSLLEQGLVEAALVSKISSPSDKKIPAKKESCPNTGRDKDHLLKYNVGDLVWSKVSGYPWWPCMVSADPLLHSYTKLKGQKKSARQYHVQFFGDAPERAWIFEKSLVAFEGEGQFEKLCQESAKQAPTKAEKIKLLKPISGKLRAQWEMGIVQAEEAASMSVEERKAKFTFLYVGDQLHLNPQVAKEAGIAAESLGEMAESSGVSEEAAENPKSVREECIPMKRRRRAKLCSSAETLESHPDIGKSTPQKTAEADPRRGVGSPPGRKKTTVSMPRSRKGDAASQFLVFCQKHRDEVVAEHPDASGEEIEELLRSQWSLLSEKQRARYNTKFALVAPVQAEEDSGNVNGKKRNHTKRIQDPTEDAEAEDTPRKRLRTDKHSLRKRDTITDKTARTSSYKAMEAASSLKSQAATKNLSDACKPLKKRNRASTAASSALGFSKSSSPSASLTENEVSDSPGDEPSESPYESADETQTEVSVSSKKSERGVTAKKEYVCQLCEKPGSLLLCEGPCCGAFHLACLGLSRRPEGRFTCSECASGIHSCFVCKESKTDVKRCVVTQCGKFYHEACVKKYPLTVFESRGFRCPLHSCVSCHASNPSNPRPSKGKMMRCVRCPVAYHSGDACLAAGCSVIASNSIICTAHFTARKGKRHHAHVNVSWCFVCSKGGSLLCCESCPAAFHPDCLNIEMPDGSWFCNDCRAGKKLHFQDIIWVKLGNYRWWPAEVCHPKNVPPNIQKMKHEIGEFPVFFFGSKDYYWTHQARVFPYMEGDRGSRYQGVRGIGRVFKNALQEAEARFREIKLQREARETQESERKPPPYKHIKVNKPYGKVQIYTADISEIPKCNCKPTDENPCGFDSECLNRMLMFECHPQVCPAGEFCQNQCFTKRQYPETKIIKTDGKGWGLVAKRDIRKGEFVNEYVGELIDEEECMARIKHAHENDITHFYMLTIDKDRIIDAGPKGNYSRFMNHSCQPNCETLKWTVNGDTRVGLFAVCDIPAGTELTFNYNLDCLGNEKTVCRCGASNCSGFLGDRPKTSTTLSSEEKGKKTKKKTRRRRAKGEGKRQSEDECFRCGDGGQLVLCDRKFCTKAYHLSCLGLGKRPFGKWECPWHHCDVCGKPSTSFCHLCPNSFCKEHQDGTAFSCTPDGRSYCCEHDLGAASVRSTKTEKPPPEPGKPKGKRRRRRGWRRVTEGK
It counts as biochemical.

Another assay concerns Vero. The assay can be described thus: Vero cell cytotoxicity, cytotoxicity control for flavivirus capping enzyme inhibitors (AID 588742). Format: functional. The settings on record: Chlorocebus sabaeus.
Assay [6] in a line: growth suppression of PTEN-null colon cells, dose response, cell-based, HCT116 PTEN knockout (AID 1047).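 Also: HCT116 colon tumor cells with PTEN knocked out; cells exposed to compound for 60 hours before readout; potency for loss of cell viability measured by luminescence.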 It counts as functional.
Assay [7] is described as follows: HeLa cell cytotoxicity, dose response, cytotoxicity control for MgcRacGAP inhibitor project (AID 624300). Format: functional.
Assay [8] can be described thus: growth suppression of beta-catenin-knockout colon cells, dose response, cell-based, HCT116, human colon tumor (AID 1045).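 Also: HCT116 colon tumor cells with beta catenin knocked out; cells exposed to compound for 60 hours.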 Format: functional.
The target of another assay is Galanin receptor type 2 (Homo sapiens, UniProt O43603). The assay can be described thus: Dose Response cell-based high-throughput screening assay to identify antagonists of galanin receptor 2 (GALR2). [Related pubchem assays: 828, 866 ]. It counts as functional.
Galanin receptor type 2, sequence (O43603 whole entry): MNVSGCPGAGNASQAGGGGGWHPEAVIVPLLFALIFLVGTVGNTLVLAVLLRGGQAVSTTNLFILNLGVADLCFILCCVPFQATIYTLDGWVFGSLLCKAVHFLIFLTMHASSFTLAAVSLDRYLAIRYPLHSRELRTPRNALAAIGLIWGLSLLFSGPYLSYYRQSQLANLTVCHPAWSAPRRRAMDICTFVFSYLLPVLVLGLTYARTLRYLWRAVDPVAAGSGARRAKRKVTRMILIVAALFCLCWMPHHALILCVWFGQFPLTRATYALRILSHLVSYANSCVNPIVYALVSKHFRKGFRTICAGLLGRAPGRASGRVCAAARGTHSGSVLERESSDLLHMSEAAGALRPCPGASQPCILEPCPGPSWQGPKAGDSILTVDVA
The target in a further assay is NADPH oxidase 1 (Homo sapiens, UniProt Q9Y5S8). In words: Late-stage luminescence-based cell-based dose response assay to identify inhibitors of NADPH oxidase 1 (NOX1): Synthesized analogs 2. It counts as functional.
NADPH oxidase 1, sequence (Q9Y5S8 whole entry): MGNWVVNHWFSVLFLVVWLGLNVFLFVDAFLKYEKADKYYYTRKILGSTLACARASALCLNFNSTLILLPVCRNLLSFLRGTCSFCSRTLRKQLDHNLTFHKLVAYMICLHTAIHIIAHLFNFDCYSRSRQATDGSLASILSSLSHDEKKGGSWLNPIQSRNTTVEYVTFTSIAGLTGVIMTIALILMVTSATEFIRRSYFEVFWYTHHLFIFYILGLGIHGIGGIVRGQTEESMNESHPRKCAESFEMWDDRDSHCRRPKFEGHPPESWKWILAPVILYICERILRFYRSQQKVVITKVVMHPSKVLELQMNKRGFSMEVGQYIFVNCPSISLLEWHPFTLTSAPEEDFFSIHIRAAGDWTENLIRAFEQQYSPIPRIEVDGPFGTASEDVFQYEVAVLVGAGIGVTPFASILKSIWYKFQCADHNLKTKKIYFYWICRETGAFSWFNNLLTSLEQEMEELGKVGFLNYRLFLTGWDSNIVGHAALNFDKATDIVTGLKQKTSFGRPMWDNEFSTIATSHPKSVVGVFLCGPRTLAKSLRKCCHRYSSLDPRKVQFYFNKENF
Assay [9] has as its target T4, Polyadenylate-binding protein 1 (Homo sapiens, UniProt P11940). The assay can be described thus: PABP1 MLLE–PAM2 interaction inhibitors, dose response, miRNA deadenylation inhibitor project, biochemical, fluorescence polarization, Cy5-PAM2 peptide, secondary (AID 602260). It counts as functional. To be noted: read-out: IC50_Mean.
The target in assay [10] is T4, Polyadenylate-binding protein 1. The assay can be described thus: PABP1 MLLE–PAM2 binding inhibitor potency, dose response, biochemical, fluorescence polarization, FITC-PAM2 peptide (AID 602259). The settings on record: read-out: IC50_Mean. It counts as functional. For orientation: Polarisation of emitted light reports the rotation of a fluorescent probe.
In assay [11] the target is Peroxisome proliferator-activated receptor gamma/Nuclear receptor corepressor 2 (Homo sapiens, UniProt P37231+Q9Y618). Format: functional.
The nature of assay [12]: Luminescence Cell-Based Dose Response to Identify Activators of Luciferase Translation or Activity in H4-C Neuroglioblastoma Cells. [Related pubchem assays: 1829 (Project Summary), 1814 (Primary HTS)]. It counts as functional.
Assay [13] addresses Voltage-gated inwardly rectifying potassium channel KCNH2 (Homo sapiens, UniProt Q12809). The assay can be described thus: hERG protection from proarrhythmic block, potency, dose response, cell-based, thallium flux (AID 2121). It counts as ADME. (The hERG channel carries a current that helps repolarise heart muscle cells.)
Assay [14] in a line: Luminescence Cell-Based Dose Response HTS to Identify Activators of Luciferase Translation or Activity in H4 […] Cells. [Related pubchem assays: 1829 (Project Summary), 1814 (Primary HTS)]. It counts as functional.
Another assay has as its target Estrogen receptor beta (Homo sapiens, UniProt Q92731).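 Also: recombinant ER-beta bound to coactivator SRC1 peptide in presence of estradiol agonist; inhibitors block coactivator peptide binding and lower the FRET signal.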
Assay [15] can be described thus: Luminescence Cell-Based Dose Confirmation to Identify Activators of 5'UTR Stem-Loop Driven Alpha-Synuclein mRNA Translation in H4 Neuroglioblastoma Cells. [Related pubchem assays: 1829 (Project Summary), 1814 (Primary HTS)]. It counts as functional.
Assay [16] is described as follows: Luminescence Cell-Based Dose Response to Identify Activators of 5'UTR Stem-Loop Driven Prion Protein mRNA Translation in H4-C Neuroglioblastoma Cells. [Related pubchem assays: 1829 (Project Summary), 1814 (Primary HTS)]. It counts as functional.
Assay [17] can be described thus: C. albicans growth with fluconazole, confirmation, fluorescence, retest (AID 2467). It counts as functional, cell-based.
Assay [18] in a line: NIH-3T3 fibroblast cytotoxicity, dose response, cytotoxicity control, cell-based, fluorescence, Alamar Blue, secondary assay (AID 2327).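 Also: NIH-3T3 mouse fibroblasts cultured with fluconazole at 8 µg/mL.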 Format: functional. Background: Resazurin is reduced to fluorescent resorufin, in cell work by metabolically active cells.
For assay [19], the target named is Photoreceptor-specific nuclear receptor (Homo sapiens, UniProt Q9Y5X4). It counts as functional.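 Also: potency for compounds that break the NR2E3 corepressor complex and count as activators.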
Photoreceptor-specific nuclear receptor, sequence (Q9Y5X4 whole entry): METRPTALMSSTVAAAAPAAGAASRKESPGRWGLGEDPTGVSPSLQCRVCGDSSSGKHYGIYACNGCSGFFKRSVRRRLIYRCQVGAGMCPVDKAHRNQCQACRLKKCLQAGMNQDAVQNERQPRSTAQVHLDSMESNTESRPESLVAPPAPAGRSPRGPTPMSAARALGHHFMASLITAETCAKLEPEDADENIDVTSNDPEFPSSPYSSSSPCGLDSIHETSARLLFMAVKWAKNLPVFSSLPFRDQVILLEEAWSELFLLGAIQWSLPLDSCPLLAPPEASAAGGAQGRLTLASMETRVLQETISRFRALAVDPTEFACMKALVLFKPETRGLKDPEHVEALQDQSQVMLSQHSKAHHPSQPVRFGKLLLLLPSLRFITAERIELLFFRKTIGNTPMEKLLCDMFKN
A short description of assay [20]: THP-1 cell cytotoxicity, dose response, cytotoxicity control for non-replicating M. tuberculosis project (AID 489025). Format: functional.
Assay [21] in a line: HepG2 cell cytotoxicity, dose response, cytotoxicity control for non-replicating M. tuberculosis project (AID 489018). To be noted: Mycobacterium tuberculosis. Format: functional.
The nature of assay [22]: inhibitors of intracellular T. cruzi replication, confirmation, NIH3T3 host cells, beta-gal luminescence (AID 2044).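 Also: intracellular parasites grown in NIH/3T3 mouse fibroblasts as host cells; luminescent beta-galactosidase reporter signal from transgenic T. cruzi replicating inside host cells; inhibitors lower the luminescence signal.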 Format: functional, cell-based.
A short description of another assay: cells. Format: functional.
The nature of assay [23]: cytotoxicity toward NIH3T3 fibroblasts, dose response, counter-screen, cell-based, ATP luminescence, mouse fibroblasts (AID 2010).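 Also: cells exposed to compound for about 90 hours before reading.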 It counts as functional.
Assay [24] in a line: Vero E6 cell cytotoxicity, dose response, cytotoxicity control for non-replicating M. tuberculosis project, secondary assay (AID 492998). Format: functional, VeroE6. The settings on record: Vero C1008.
Assay [25] has as its target Aryl hydrocarbon receptor (Homo sapiens, UniProt P35869). In words: Luminescence-based cell-based high throughput dose response assay for activators of the Aryl Hydrocarbon Receptor (AHR). [Related pubchem assays: 2796 (Primary screen (AHR activators in singlicate)), 2845 (Confirmation screen (AHR activators in triplicate)), 434939 (Counterscreen (PXR activators in triplicate)), 2804 (Summary (AHR activators))]. It counts as ADME.

T4 sequence (P11940 whole entry): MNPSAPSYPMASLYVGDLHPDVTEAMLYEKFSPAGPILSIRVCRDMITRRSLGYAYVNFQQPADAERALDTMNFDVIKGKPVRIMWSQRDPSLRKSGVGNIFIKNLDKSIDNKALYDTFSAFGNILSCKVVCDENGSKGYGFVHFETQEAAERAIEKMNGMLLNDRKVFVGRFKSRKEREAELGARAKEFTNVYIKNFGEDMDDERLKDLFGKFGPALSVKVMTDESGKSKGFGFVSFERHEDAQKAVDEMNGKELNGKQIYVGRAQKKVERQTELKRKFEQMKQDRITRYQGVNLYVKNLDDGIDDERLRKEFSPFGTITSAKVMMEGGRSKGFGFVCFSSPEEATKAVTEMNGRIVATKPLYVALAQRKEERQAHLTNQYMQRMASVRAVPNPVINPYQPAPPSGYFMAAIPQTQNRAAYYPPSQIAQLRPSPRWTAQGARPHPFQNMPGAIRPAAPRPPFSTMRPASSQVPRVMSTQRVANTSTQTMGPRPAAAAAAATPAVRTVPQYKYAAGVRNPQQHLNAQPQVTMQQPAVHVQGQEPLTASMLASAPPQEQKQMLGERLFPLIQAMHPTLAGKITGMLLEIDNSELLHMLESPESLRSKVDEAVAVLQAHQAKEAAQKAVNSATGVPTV
Voltage-gated inwardly rectifying potassium channel KCNH2, sequence (Q12809 whole entry): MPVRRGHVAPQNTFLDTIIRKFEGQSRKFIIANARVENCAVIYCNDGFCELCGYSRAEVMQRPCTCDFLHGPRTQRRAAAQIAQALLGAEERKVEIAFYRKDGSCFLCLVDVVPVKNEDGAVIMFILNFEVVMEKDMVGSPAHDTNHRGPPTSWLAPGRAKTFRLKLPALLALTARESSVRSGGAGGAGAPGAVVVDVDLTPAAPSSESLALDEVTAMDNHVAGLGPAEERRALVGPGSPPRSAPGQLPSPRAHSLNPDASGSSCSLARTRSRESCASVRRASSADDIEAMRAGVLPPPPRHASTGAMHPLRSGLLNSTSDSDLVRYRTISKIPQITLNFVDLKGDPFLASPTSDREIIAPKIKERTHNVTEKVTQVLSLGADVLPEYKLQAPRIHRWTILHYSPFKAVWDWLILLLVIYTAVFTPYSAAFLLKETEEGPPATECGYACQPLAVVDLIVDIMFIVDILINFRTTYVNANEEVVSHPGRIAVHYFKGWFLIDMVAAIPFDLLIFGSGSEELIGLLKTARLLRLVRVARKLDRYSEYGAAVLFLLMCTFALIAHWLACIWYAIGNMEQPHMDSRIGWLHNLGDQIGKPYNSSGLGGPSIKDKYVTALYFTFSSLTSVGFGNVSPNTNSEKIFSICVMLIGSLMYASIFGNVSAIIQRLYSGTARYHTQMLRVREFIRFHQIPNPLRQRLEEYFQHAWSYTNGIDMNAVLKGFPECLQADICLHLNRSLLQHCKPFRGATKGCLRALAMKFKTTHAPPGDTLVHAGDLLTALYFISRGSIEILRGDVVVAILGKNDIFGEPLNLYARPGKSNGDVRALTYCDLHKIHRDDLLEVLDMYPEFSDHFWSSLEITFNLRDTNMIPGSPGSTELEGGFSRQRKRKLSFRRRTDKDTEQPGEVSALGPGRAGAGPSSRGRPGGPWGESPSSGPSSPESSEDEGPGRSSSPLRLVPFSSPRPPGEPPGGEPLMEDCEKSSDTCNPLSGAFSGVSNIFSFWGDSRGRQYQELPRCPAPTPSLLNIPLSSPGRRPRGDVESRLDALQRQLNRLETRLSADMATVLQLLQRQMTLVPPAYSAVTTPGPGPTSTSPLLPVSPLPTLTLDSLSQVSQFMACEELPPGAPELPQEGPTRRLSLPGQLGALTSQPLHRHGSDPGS
Transitional endoplasmic reticulum ATPase (Homo sapiens, UniProt P55072, C522A), sequence (P55072 2-806 C522A limits assumed): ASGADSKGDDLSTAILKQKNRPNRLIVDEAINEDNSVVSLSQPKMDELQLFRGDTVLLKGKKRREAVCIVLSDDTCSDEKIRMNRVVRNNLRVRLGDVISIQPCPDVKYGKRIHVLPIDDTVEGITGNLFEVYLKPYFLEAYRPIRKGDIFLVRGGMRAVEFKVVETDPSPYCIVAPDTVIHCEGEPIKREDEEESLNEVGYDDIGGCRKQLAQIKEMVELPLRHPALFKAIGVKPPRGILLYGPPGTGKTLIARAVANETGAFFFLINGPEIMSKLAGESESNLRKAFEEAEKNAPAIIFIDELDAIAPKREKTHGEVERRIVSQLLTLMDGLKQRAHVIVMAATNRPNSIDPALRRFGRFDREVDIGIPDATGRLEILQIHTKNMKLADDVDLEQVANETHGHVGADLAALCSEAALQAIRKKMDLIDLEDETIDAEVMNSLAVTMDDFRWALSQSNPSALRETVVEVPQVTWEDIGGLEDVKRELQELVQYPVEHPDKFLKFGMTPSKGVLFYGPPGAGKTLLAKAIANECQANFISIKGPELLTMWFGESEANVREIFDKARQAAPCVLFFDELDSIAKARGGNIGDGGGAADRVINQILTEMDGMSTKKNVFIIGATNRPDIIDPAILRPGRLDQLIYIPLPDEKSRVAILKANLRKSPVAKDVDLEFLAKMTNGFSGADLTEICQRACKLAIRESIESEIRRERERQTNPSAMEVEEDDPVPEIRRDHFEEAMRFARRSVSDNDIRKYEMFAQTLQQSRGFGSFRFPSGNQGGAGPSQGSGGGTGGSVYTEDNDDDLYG
Aryl hydrocarbon receptor, sequence (P35869 whole entry): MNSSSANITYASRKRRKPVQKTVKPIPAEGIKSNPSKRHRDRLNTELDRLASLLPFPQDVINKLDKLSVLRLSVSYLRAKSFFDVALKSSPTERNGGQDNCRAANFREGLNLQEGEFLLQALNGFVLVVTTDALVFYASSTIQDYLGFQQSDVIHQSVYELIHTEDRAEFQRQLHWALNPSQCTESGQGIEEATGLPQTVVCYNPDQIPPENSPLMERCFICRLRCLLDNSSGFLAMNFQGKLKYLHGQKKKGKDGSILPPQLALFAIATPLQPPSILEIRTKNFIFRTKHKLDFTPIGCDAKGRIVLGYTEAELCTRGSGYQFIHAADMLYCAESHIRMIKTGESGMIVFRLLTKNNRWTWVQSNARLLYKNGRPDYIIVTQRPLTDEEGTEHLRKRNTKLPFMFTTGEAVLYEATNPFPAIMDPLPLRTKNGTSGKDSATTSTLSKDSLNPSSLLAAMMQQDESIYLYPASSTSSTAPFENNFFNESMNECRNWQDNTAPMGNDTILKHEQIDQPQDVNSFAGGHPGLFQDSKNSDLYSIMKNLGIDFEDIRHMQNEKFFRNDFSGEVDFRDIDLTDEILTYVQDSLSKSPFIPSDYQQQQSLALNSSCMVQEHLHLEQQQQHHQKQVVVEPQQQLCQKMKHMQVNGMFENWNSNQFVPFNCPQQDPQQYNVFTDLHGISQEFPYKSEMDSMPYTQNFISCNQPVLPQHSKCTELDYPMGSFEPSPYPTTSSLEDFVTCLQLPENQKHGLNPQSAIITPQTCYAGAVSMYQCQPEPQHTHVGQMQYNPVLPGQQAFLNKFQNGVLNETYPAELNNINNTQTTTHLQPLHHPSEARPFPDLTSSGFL

In the case of `CCOC(=O)/C(C#N)=C/c1c2ccccc2cc2ccccc12`, the IC50 in [1] and in [2] was > 50 µM (not active) throughout.
`CN(C)c1ccc(NC2=C(Cl)C(=O)c3ccccc3C2=O)cc1`: the IC50 in [3] was > 50 µM (not active); in assay [4], 122 µM (active); on Nonstructural protein 1, 7.36 µM (active); on Galanin receptor type 2 it was 8.84 µM (active). Also, in assay [5], the AC50 was 5.02 µM (active). Also, the CC50 is 32.2 µM (active) with Vero and 16.1 µM (active) in assay [7]. Further, the EC50 is 6.29 µM (active) in assay [6] and 3.94 µM (active) in assay [8].
Take `CC(=O)c1ccc2c(c1)N(C(=O)Nc1ccccc1)c1ccccc1S2`: the IC50 on NADPH oxidase 1 is 1.56 µM (active).
With `Cc1ccc(C(=O)Nc2nc3ccccc3c(=O)s2)cc1`, the IC50 was > 66 µM (inactive) in assay [9]; > 66 µM (inactive) in assay [10]; 2.71 µM (active) in [11]; > 50 µM (not active) against Estrogen receptor beta; > 39.8 µM (not active) in assay [19]. Further, the EC50 in assay [12] was 0.303 µM (active); in assay [13], 2.74 µM (active); in assay [14], < 0.1 µM (inconclusive); in assay [15], 0.295 µM (active); in assay [16], 0.311 µM (active); in assay [17] it was 10.2 µM (active). Further, the EC50 in [18] was > 160 µM (inactive).
As to `COc1ccc(/C=N/Nc2cc(C)nc3ccccc23)cc1`, the 50% cytotoxic concentration (CC50) in [20] is 12.1 µM (active); in [21] it was 12.5 µM (active); in assay [24], 11 µM (active). Moreover, the EC50 was 2.35 µM (active) in [22], 11.2 µM (active) in assay [23] and > 1.13 µM (active) in assay [25]. The IC50 in the assay “cells” is 11.1 µM (active).
